17 molecules from patent US10669270B2, “Amide-sulfamide derivatives, compositions, and uses related to CXCR4 inhibition” (Emory University, priority 2016, dated 2020) can be followed below.

The term melting point denotes the temperature of the solid-liquid transition.

The structures appear in SMILES notation.

Take `O=C(NCc1ccc(CNS(=O)(=O)c2ccc(F)cc2F)cc1)c1ncc[nH]1` [Ie, N-(4-((2,4-difluorophenylsulfonamido)methyl)benzyl)-1H-imidazole-2-carboxamide]: the melting point lay within 225 to 227 °C.

`O=C(NCc1ccc(CNS(=O)(=O)c2ccccc2)cc1)c1ccc(Cl)cc1` [IIIn, 4-Chloro-N-(4-(phenylsulfonamidomethyl)benzyl)benzamide] came in with a melting point of 182 to 184 °C. For `COc1cccc(C(=O)NCc2ccc(CNS(=O)(=O)c3ccccc3)cc2)c1` [IIIf, 3-Methoxy-N-(4-(phenylsulfonamidomethyl)benzyl)benzamide] the value was 120 to 122 °C; for `O=C(NCc1ccc(CNS(=O)(=O)c2ccccc2)cc1)c1c(Cl)cc(Cl)cc1Cl` [IIIp, 2,4,6-Trichloro-N-(4-(phenylsulfonamidomethyl)benzyl)benzamide], 158 to 160 °C; for `COc1ccc(C(=O)NCc2ccc(CNS(=O)(=O)c3ccc(C)cc3)cc2)cc1` [IIg, 4-Methoxy-N-(4-((4-methylphenylsulfonamido)methyl)benzyl)benzamide], 147 to 149 °C. The value for `COc1ccccc1C(=O)NCc1ccc(CNS(=O)(=O)c2ccc(C)cc2)cc1` [IIe, 2-Methoxy-N-(4-((4-methylphenylsulfonamido)methyl)benzyl)benzamide] was 154 to 156 °C; that for `Cc1ccc(C(=O)NCc2ccc(CNS(=O)(=O)c3ccccc3)cc2)cc1` [IIId, 4-Methyl-N-(4-(phenylsulfonamidomethyl)benzyl)benzamide] was 188 to 190 °C; that for `O=C(NCc1ccc(CNS(=O)(=O)c2ccccc2)cc1)c1ccncc1` [IIIr, N-(4-(phenylsulfonamidomethyl)benzyl)isonicotinamide] was 154 to 156 °C. For `O=C(NCc1ccc(CNS(=O)(=O)c2ccccc2)cc1)c1ccccc1F` [IIIh, 2-Fluoro-N-(4-(phenylsulfonamidomethyl)benzyl)benzamide] the value was 122 to 124 °C; for `Cc1ccc(S(=O)(=O)NCc2ccc(CNC(=O)c3c(Cl)cc(Cl)cc3Cl)cc2)cc1` [IIp, 2,4,6-Trichloro-N-(4-((4-methylphenylsulfonamido)methyl)benzyl)benzamide], 188 to 190 °C.

The molecule `O=C(NCc1ccc(CNS(=O)(=O)c2ccccc2F)cc1)c1cc2ccccn2n1` [Ij, N-(4-((2-fluorophenylsulfonamido)methyl)benzyl)pyrazolo[1,5-a]pyridine-2-carboxamide] registered a melting point of 138 to 140 °C. Take `Cc1ccc(S(=O)(=O)NCc2ccc(CNC(=O)c3cccnc3)cc2)cc1` [IIq, N-(4-((4-methylphenylsulfonamido)methyl)benzyl)nicotinamide]: the melting point is 120 to 122 °C. In turn, `COc1ccc(C(=O)NCc2ccc(CNS(=O)(=O)c3ccccc3)cc2)cc1` [IIIg, 4-Methoxy-N-(4-(phenylsulfonamidomethyl)benzyl)benzamide] had a melting point of 164 to 166 °C.

In the case of `O=C(NCc1ccc(CNS(=O)(=O)c2ccc3c(c2)CCO3)cc1)c1cccc2c1COC2` [Id, N-(4-((2,3-dihydrobenzofuran-5-sulfonamido)methyl)benzyl)-1,3-dihydroisobenzofuran-4-carboxamide], the melting point lay within 149 to 151 °C.

In the case of `O=C(NCc1ccc(CNS(=O)(=O)c2ccc3c(c2)CCO3)cc1)c1cc2ccccn2n1` [Ib, N-(4-((2,3-dihydrobenzofuran-5-sulfonamido)methyl)benzyl)pyrazolo[1,5-a]pyridine-2-carboxamide], the melting point was 180 to 182 °C. For `O=C(NCc1ccc(CNS(=O)(=O)c2ccc(F)c(F)c2)cc1)c1cnc2ccccn12` [Ii, N-(4-((3,4-difluorophenylsulfonamido)methyl)benzyl)imidazo[1,2-a]pyridine-3-carboxamide] the value was 192 to 194 °C; for `Cc1ccc(S(=O)(=O)NCc2ccc(CNC(=O)c3cccc(F)c3)cc2)cc1` [IIi, 3-Fluoro-N-(4-((4-methylphenylsulfonamido)methyl)benzyl)benzamide], 137 to 139 °C.
